Tests used:
AKT = experiment: Inhibition of AKT phosphorylation on S473 in PC3 cells; format: cell-based
Protocol: (§1) (FIG. 2A) Dose-response curves for EphA2 autophosphorylation on tyrosine 588 (pY588; purple) and for downstream inhibition of AKT phosphorylation (magenta). PC3 cells were treated for 15 min with different concentrations of the indicated peptides. […] The graphs show quantifications from multiple blots (averages ±SE; the number of experiments used to generate each curve is shown in Table 3). […] (FIG. 2B) Examples of immunoblots of lysates from PC3 cells treated with the indicated concentrations of representative ligands. […] A white vertical line indicates removal of irrelevant lanes. […] The bars show averages ±SE, and the individual measurements are shown as black dots. […] Plots of Etop versus EC50 for pY588 in FIG. 2D and for pAKT inh in FIG. 2E. Averages ±SE are shown for the peptides and ephrinA1.

other Eph receptors = experiment: ELISA selectivity: ephrinA5-AP binding to EphA receptors and ephrinB2-AP binding to EphB receptors; conditions: peptide at ~100-fold its IC50
Source text: FIG. 1A-1C illustrates an example of Potency and selectivity of EphA2-targeting dimeric peptides. (FIG. 1A) ELISAs comparing the ability of the peptides to inhibit binding of ephrin-A5 fused to alkaline phosphatase (ephrinA5-AP) to the immobilized EphA2 extracellular domain fused to the Fc portion of an antibody (EphA2-Fc). The graphs show averages ±SD from triplicate measurements from a representative experiment. IC50 values calculated from the fitted curves in each experiment are shown. Averages of IC50 values obtained from multiple experiments are shown in panel FIG. 1B and Table 3. The 10 nM peptide concentration is outlined in red. (FIG. 1B) Plot of the average IC50 values (listed in Table 3) for different ligands. […] (FIG. 1C) EphrinA5-AP binding to EphA receptors and ephrinB2-AP binding to EphB receptors in the presence of dimeric peptides representing each of the three configurations. Values are normalized to ephrin binding without peptide. The graphs show averages and SDs from triplicate measurements (with each measurement shown as a dot).
An important feature of the original YSA peptide and its monomeric derivatives is that they specifically bind to EphA2, whereas the ephrinA ligands promiscuously binds to all EphA receptors (9, 31, 37, 53). […]

EphA2 [1] = biological target: T1, EphA2 (Homo sapiens, UniProt P29317, G131Y); experiment: Quantitative FRET of EphA2 oligomerization in transiently transfected HEK293 cells; format: cell-based
T1 construct: expressed in transfected cells; host or cells: HEK293 (HEK293T), transient transfection
Source text: (§2) FIG. 4A-4E illustrates an example where dimers with different configurations induce EphA2 oligomerization and patching on the cell surface. (FIG. 4A-4D) Oligomerization curves comparing EphA2 WT and the G131Y and L223R/L254R/[…] interface mutants transiently expressed in HEK293 cells and treated with saturating concentrations of C-terminally linked dimer (2) or N-terminally linked dimer (5). The curves were obtained by fitting quantitative FRET data to monomer-oligomer models. […] Curves for higher order oligomerization are steeper than dimerization curves. (FIG. 4E) Two-photon integrated fluorescence images of HEK293 cells expressing EphA2-EYFP and EphA2-mTURQ and under hypo-osmotic conditions. The plasma membrane regions in the rectangular yellow outlines are enlarged in the insets at the bottom of each panel. The dimeric peptides induce patching of EphA2 WT on the plasma membrane and dimer (5) also induces patching of the EphA2 L223R/L254R/V255R mutant, while in the other cases the EphA2 interface mutations disrupt patching. The scale bar represents 10 μm for the main panels and 4 μm for the insets. # indicates the presence of EphA2 patches in the plasma membrane.
(§3) FIG. 12 illustrates an example of FRET efficiencies versus total receptor concentrations. […]
(§4) To examine the effects of dimeric peptide ligands on EphA2 oligomerization (including dimerization and higher order clustering), quantitative FRET experiments were performed in live cells. […] FRET is then measured in hundreds of individual cells with different EphA2 expression levels (FIG. 12), and the data are combined to yield average oligomeric fractions at different EphA2 concentrations (FIG. 4A-4D). […]
(§5) To obtain the data points for oligomerization curves (FIG. 12), the concentration of EphA2 in each small region of plasma membrane in which FRET efficiency was measured. Conversion of fluorescence intensity into accurate 2-dimensional EphA2 concentration requires a reversible hypo-osmotic treatment to swell the cells and smooth the wrinkled topology of their plasma membrane (FIG. 4E). […]

EphA2 [2] = biological target: T2, EphA2 (Homo sapiens, UniProt P29317, L223R/L254R/V255R); experiment: as above; format: cell-based; conditions: swollen HEK293 cells
T2 construct: expressed in transfected cells; host or cells: HEK293 (HEK293T), transient transfection
Source text: as §2, §3, §4, §5

EphA2 [3] = biological target: EphA2 (Homo sapiens, UniProt P29317); experiment: EphA2 autophosphorylation on tyrosine 588 in PC3 cells (immunoblot dose-response); format: cell-based; set-up: EphA2 is the prevalent endogenously expressed EphA receptor in these cells; endogenous in cells; host or cells: PC3 prostate cancer cells
Protocol: as §1
To examine the agonistic properties of the different dimeric peptide ligands, EphA2 autophosphorylation on tyrosine 588 (Y588) was measured, which is indicative of receptor activation and mediates binding of SH2 domain-containing proteins that link EphA2 to various downstream signaling pathways (FIG. 7). For these experiments, PC3 prostate cancer cells were stimulated with the dimeric peptides because EphA2 is the prevalent endogenously expressed EphA receptor in these cells, allowing comparisons with ephrins.

Chain of EphA2 (Homo sapiens, UniProt P29317) (P29317 24-976): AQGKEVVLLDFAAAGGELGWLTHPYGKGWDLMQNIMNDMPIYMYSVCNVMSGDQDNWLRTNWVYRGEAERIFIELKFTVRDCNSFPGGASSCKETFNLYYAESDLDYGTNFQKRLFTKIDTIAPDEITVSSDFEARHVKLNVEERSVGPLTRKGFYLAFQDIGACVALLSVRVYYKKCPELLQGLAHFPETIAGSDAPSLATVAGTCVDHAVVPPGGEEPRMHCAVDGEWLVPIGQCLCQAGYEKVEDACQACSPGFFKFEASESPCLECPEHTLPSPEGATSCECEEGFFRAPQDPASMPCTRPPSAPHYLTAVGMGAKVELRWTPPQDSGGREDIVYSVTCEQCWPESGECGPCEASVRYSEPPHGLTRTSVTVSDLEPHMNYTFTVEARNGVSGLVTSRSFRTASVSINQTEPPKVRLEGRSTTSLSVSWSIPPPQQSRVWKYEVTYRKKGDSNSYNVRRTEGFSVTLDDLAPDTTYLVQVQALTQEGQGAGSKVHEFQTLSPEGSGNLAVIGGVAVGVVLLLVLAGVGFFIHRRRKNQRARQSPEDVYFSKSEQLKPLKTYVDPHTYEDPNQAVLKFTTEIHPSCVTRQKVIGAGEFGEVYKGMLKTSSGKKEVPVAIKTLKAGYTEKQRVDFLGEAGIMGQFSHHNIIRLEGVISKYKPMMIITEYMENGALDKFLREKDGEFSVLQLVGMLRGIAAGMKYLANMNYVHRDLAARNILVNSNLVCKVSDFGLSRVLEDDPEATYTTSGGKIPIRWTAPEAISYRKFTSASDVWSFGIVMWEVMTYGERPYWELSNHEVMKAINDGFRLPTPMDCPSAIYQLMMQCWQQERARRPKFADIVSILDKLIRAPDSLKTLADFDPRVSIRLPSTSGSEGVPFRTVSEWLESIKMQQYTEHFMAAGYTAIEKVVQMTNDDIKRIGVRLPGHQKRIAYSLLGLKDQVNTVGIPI
T1 sequence (P29317 24-976 G131Y): as the sequence (P29317 24-976) above, with G108Y counted along it
T2 sequence (P29317 24-976 L223R/L254R/V255R): as the sequence (P29317 24-976) above, with L200R, L231R, V232R counted along it

For CC(C)C[C@H](NC(=O)[C@H](Cc1c[nH]c2ccccc12)NC(=O)[C@H](C)NC(=O)CNC(=O)[C@@H](N)CSSC[C@H](N)C(=O)NCC(=O)N[C@@H](C)C(=O)N[C@@H](Cc1c[nH]c2ccccc12)C(=O)N[C@@H](CC(C)C)C(=O)N[C@@H](C)C(=O)N[C@@H](Cc1ccc(O)cc1)C(=O)N1CCC[C@H]1C(=O)N[C@@H](CC(=O)O)C(=O)N[C@@H](CO)C(=O)N[C@H](C(=O)N1CCC[C@H]1C(=O)N[C@@H](Cc1ccc(O)cc1)C(=O)N[C@@H](CCCNC(=N)N)C(=O)N1CCC[C@H]1C(=O)N[C@@H](CCCCN)C(=O)O)C(C)C)C(=O)N[C@@H](C)C(=O)N[C@@H](Cc1ccc(O)cc1)C(=O)N1CCC[C@H]1C(=O)N[C@@H](CC(=O)O)C(=O)N[C@@H](CO)C(=O)N[C@H](C(=O)N1CCC[C@H]1C(=O)N[C@@H](Cc1ccc(O)cc1)C(=O)N[C@@H](CCCNC(=N)N)C(=O)N1CCC[C@H]1C(=O)N[C@@H](CCCCN)C(=O)O)C(C)C [compound 5, CGA-WLA-YRPK dimer (N-ter)], the IC50 (AKT; PC3 cells) was 0.068 ± 0.011 nM, the EC50 (AKT; Table 3, PC3 cells treated for 15 min, read-out: ECsa pAKT inhlb.) was 0.09 ± 0.02 nM and the “Etop pAKT inhlb” value (AKT; Table 3, PC3 cells, 15 min, 1-pAKT/AKT normalized to cells not treated with ligand) was 1.0 ± 0.04. The “selectivity for EphA2 / binding to other Eph receptors” value (other Eph receptors) was “do not bind to other Eph receptors”, the “best-fit FRET oligomerization model, EphA2 G131Y mutant” value (EphA2 [1]; saturating peptide, HEK293 cells) was “dimer model” and the “EphA2 patches on the plasma membrane, EphA2 G131Y mutant” value (EphA2 [1]; swollen HEK293 cells) was “not”. For the same molecule, the “EphA2 patches on the plasma membrane, EphA2 L223R/L254R/V255R mutant” value (EphA2 [2]) was “causes patches”, the “Etop pY588” value (EphA2 [3]; Table 3, 15 min, saturating ligand, pY588/EphA2 normalized to ephrinA1-Fc) was 0.87 ± 0.04 and the “Emax PY588” value (EphA2 [3]; ephrinA1Fc = 1.00) was 0.78 ± 0.025. For the same molecule, the EC50 (EphA2 [3]; read-out: EC50 PY588) was 0.53 ± 0.07 nM.

Reference: US20230391826A1, “COMPOSITIONS AND METHODS FOR TREATING DISEASES” (Sanford Burnham Prebys Medical Discovery Institute, priority 2020, published 2023)
